In PMC5218480 (PLoS ONE, 2017):

System: MV-4-11 cells
Experiment: Gene expression microarray analysis (Affymetrix PrimeView) and GSEA
Assay type: cell-based, human
Design: RFU PODN (11730768_x_at) / Fold change /veh PODN (11730768_x_at) / RFU LINC00158 (11744669_a_at) / Fold change /veh LINC00158 (11744669_a_at) / RFU DUSP10 (11751237_a_at) / Fold change /veh DUSP10 (11751237_a_at) / RFU ID3 (11757404_x_at) / Fold change /veh ID3 (11757404_x_at) / RFU PLEKHG5 (11737974_s_at) / Fold change /veh PLEKHG5 (11737974_s_at) / RFU LRRC4B (11730491_at) / Fold change /veh LRRC4B (11730491_at) / RFU GIMAP4 (11747438_a_at) / Fold change /veh GIMAP4 (11747438_a_at) / RFU KRT8 (11758183_x_at) / Fold change /veh KRT8 (11758183_x_at) / RFU CNN1 (11734310_a_at) / Fold change /veh CNN1 (11734310_a_at) / RFU VPS37D (11726825_at) / Fold change /veh VPS37D (11726825_at) / RFU C10orf10 (11716522_x_at) / Fold change /veh C10orf10 (11716522_x_at) / RFU KIR2DL2 /// KIR2DL4 /// KIR2DL5A /// KIR2DL5B /// KIR2DS1 /// KIR2DS2 /// KIR2DS3 /// KIR2DS4 /// KIR3DL3 /// KIR3DL3 /// KIR3DS1 (11738374_at) / Fold change /veh KIR2DL2 /// KIR2DL4 /// KIR2DL5A /// KIR2DL5B /// KIR2DS1 /// KIR2DS2 /// KIR2DS3 /// KIR2DS4 /// KIR3DL3 /// KIR3DL3 /// KIR3DS1 (11738374_at) / RFU C1QL1 (11718748_at) / Fold change /veh C1QL1 (11718748_at) / RFU TMPRSS4 (11747572_a_at) / Fold change /veh TMPRSS4 (11747572_a_at) / RFU HAMP (11756126_x_at) / Fold change /veh HAMP (11756126_x_at) / RFU RNFT2 (11725882_a_at) / Fold change /veh RNFT2 (11725882_a_at) / RFU NR4A2 (11747474_a_at) / Fold change /veh NR4A2 (11747474_a_at) / RFU ABCC12 (11746883_a_at) / Fold change /veh ABCC12 (11746883_a_at) / RFU TMEM136 (11760407_x_at) / Fold change /veh TMEM136 (11760407_x_at) / RFU CLDN22 /// WWC2 (11732394_at) / Fold change /veh CLDN22 /// WWC2 (11732394_at) / RFU HLA-DPB1 (11760878_x_at) / Fold change /veh HLA-DPB1 (11760878_x_at) / RFU SPINT1 (11716480_a_at) / Fold change /veh SPINT1 (11716480_a_at) / RFU GAP43 (11754022_s_at) / Fold change /veh GAP43 (11754022_s_at) / RFU A4GNT (11735810_at) / Fold change /veh A4GNT (11735810_at) / RFU PRB3 (11715151_x_at) / Fold change /veh PRB3 (11715151_x_at) / RFU TUBB4B (11761932_at) / Fold change /veh TUBB4B (11761932_at) / RFU CAPN14 (11732068_a_at) / Fold change /veh CAPN14 (11732068_a_at) / RFU TMCC2 (11721928_a_at) / Fold change /veh TMCC2 (11721928_a_at) / RFU IRGQ (11745062_a_at) / Fold change /veh IRGQ (11745062_a_at) / RFU FAM174B (11720279_a_at) / Fold change /veh FAM174B (11720279_a_at) / RFU TMPRSS4 (11748680_a_at) / Fold change /veh TMPRSS4 (11748680_a_at) / RFU FAM212B (11763350_a_at) / Fold change /veh FAM212B (11763350_a_at) / RFU PLEKHG5 (11743358_a_at) / Fold change /veh PLEKHG5 (11743358_a_at) / RFU ZSCAN30 (11745921_a_at) / Fold change /veh ZSCAN30 (11745921_a_at) / RFU CMKLR1 (11741424_a_at) / Fold change /veh CMKLR1 (11741424_a_at) / RFU LOC101060620 /// MAPK8IP1 (11723275_at) / Fold change /veh LOC101060620 /// MAPK8IP1 (11723275_at) / RFU SPTSSB (11747773_x_at) / Fold change /veh SPTSSB (11747773_x_at) / RFU PRSS12 (11739890_at) / Fold change /veh PRSS12 (11739890_at) / RFU BIN1 (11741810_x_at) / Fold change /veh BIN1 (11741810_x_at) / RFU WNT11 (11732464_a_at) / Fold change /veh WNT11 (11732464_a_at) / RFU C10orf10 (11716521_a_at) / Fold change /veh C10orf10 (11716521_a_at) / RFU C5orf56 (11738089_at) / Fold change /veh C5orf56 (11738089_at) / RFU CYB561 (11721691_x_at) / Fold change /veh CYB561 (11721691_x_at) / RFU ANKRD19P (11752326_a_at) / Fold change /veh ANKRD19P (11752326_a_at) / RFU OR2T12 /// OR2T33 /// OR2T8 (11738714_s_at) / Fold change /veh OR2T12 /// OR2T33 /// OR2T8 (11738714_s_at) / RFU VCAN (11748164_a_at) / Fold change /veh VCAN (11748164_a_at) / RFU JSRP1 (11732532_at) / Fold change /veh JSRP1 (11732532_at) / RFU KRTAP10-11 (11738290_x_at) / Fold change /veh KRTAP10-11 (11738290_x_at) / RFU MYO3A (11730013_a_at) / Fold change /veh MYO3A (11730013_a_at) / RFU EBF3 (11725865_a_at) / Fold change /veh EBF3 (11725865_a_at) / RFU CAMK2N1 (11719241_x_at) / Fold change /veh CAMK2N1 (11719241_x_at) / RFU C5orf56 (11738088_a_at) / Fold change /veh C5orf56 (11738088_a_at) / RFU OLFML3 (11715873_a_at) / Fold change /veh OLFML3 (11715873_a_at) / RFU LOC100653217 /// NTM (11731650_a_at) / Fold change /veh LOC100653217 /// NTM (11731650_a_at) / RFU MAPK11 (11762145_a_at) / Fold change /veh MAPK11 (11762145_a_at) / RFU FIZ1 (11724087_x_at) / Fold change /veh FIZ1 (11724087_x_at) / RFU OASL (11726364_x_at) / Fold change /veh OASL (11726364_x_at) / RFU SOX15 (11748057_x_at) / Fold change /veh SOX15 (11748057_x_at) / RFU CD79A (11719716_a_at) / Fold change /veh CD79A (11719716_a_at) / RFU HIST1H1D (11736915_at) / Fold change /veh HIST1H1D (11736915_at) / RFU CASKIN2 (11723855_a_at) / Fold change /veh CASKIN2 (11723855_a_at) / RFU LOC730098 (11760151_x_at) / Fold change /veh LOC730098 (11760151_x_at) / RFU OR4N2 (11742367_at) / Fold change /veh OR4N2 (11742367_at) / RFU PRRT2 (11749266_a_at) / Fold change /veh PRRT2 (11749266_a_at) / RFU SNX32 (11753110_a_at) / Fold change /veh SNX32 (11753110_a_at) / RFU CDHR5 (11726645_a_at) / Fold change /veh CDHR5 (11726645_a_at) / RFU RCAN1 (11760418_a_at) / Fold change /veh RCAN1 (11760418_a_at) / RFU FAM167A (11723789_a_at) / Fold change /veh FAM167A (11723789_a_at) / RFU FAM26E (11764081_at) / Fold change /veh FAM26E (11764081_at) / RFU ISYNA1 (11749810_s_at) / Fold change /veh ISYNA1 (11749810_s_at) / RFU ACY1 (11761880_at) / Fold change /veh ACY1 (11761880_at) / RFU 11764098_at / Fold change /veh 11764098_at / RFU SAMD14 (11745864_x_at) / Fold change /veh SAMD14 (11745864_x_at) / RFU NPB (11741838_a_at) / Fold change /veh NPB (11741838_a_at) / RFU TMPRSS6 (11731388_a_at) / Fold change /veh TMPRSS6 (11731388_a_at) / RFU KRTAP10-2 (11738614_at) / Fold change /veh KRTAP10-2 (11738614_at) / RFU ARHGAP8 /// PRR5-ARHGAP8 (11727945_x_at) / Fold change /veh ARHGAP8 /// PRR5-ARHGAP8 (11727945_x_at) / RFU KRTAP5-7 /// NADSYN1 (11734609_at) / Fold change /veh KRTAP5-7 /// NADSYN1 (11734609_at) / RFU RASL12 (11751679_a_at) / Fold change /veh RASL12 (11751679_a_at) / RFU CDKN2B (11736163_a_at) / Fold change /veh CDKN2B (11736163_a_at) / RFU PRF1 (11729649_at) / Fold change /veh PRF1 (11729649_at) / RFU, ZNF638 /// ZNF638-IT1 / Fold change vs veh, ZNF638 /// ZNF638-IT1 / RFU, PANK3 / Fold change vs veh, PANK3 / RFU, SH3YL1 / Fold change vs veh, SH3YL1 / RFU, ZEB2 / Fold change vs veh, ZEB2 / RFU, NRIP1 / Fold change vs veh, NRIP1 / RFU, PTTG1IP / Fold change vs veh, PTTG1IP / RFU, CAPN2 / Fold change vs veh, CAPN2 / RFU, MED14 / Fold change vs veh, MED14 / RFU, SNORA58 / Fold change vs veh, SNORA58 / RFU, C1orf63 / Fold change vs veh, C1orf63 / RFU, LRRFIP1 / Fold change vs veh, LRRFIP1 / RFU, NDUFAF7 / Fold change vs veh, NDUFAF7 / RFU, SLC12A2 / Fold change vs veh, SLC12A2 / RFU, IBTK / Fold change vs veh, IBTK / RFU, ESF1 / Fold change vs veh, ESF1 / Fold change vs veh, TMEM50B / RFU, TAOK1 / Fold change vs veh, TAOK1 / RFU, ACBD3 / Fold change vs veh, ACBD3 / RFU, TMA16 / Fold change vs veh, TMA16 / RFU, RWDD3 / Fold change vs veh, RWDD3 / RFU, BCAT1 / Fold change vs veh, BCAT1 / RFU, EDEM3 / Fold change vs veh, EDEM3 / RFU, TMEM33 / Fold change vs veh, TMEM33 / RFU, WDR75 / Fold change vs veh, WDR75 / RFU, AHCTF1 / Fold change vs veh, AHCTF1 / RFU, TFRC / Fold change vs veh, TFRC / RFU, ZDHHC17 / Fold change vs veh, ZDHHC17 / RFU, NOM1 / Fold change vs veh, NOM1 / RFU, ARL8B / Fold change vs veh, ARL8B / RFU, ZBTB11 / Fold change vs veh, ZBTB11 / RFU, TAMM41 / Fold change vs veh, TAMM41 / RFU, KIAA1704 /// LOC100996395 / Fold change vs veh, KIAA1704 /// LOC100996395 / RFU, ING1 / Fold change vs veh, ING1 / RFU, TRMT61B / Fold change vs veh, TRMT61B / RFU, FUBP3 / Fold change vs veh, FUBP3 / RFU, TP53 / Fold change vs veh, TP53 / RFU, TNKS2 / Fold change vs veh, TNKS2 / RFU, ZFP14 / Fold change vs veh, ZFP14 / RFU, ACTR2 / Fold change vs veh, ACTR2 / RFU, PPP3R1 / Fold change vs veh, PPP3R1 / RFU, PIK3R1 / Fold change vs veh, PIK3R1 / RFU, HNRNPA1 / Fold change vs veh, HNRNPA1 / RFU, RNF170 / Fold change vs veh, RNF170 / RFU, ZNF28 / Fold change vs veh, ZNF28 / RFU, RNGTT / Fold change vs veh, RNGTT / RFU, OGT / Fold change vs veh, OGT / RFU, BRD1 / Fold change vs veh, BRD1 / RFU, MARS / Fold change vs veh, MARS / RFU, ZNF655 / Fold change vs veh, ZNF655 / RFU, FAHD1 / Fold change vs veh, FAHD1 / RFU, BDP1 / Fold change vs veh, BDP1 / RFU, LRRCC1 / Fold change vs veh, LRRCC1 / RFU, ARID1A / Fold change vs veh, ARID1A / RFU, ZNF146 / Fold change vs veh, ZNF146 / RFU, ZNF330 / Fold change vs veh, ZNF330 / RFU, GPN3 / Fold change vs veh, GPN3 / RFU, C9orf123 / Fold change vs veh, C9orf123 / RFU, N4BP2L2 / Fold change vs veh, N4BP2L2 / RFU, ARFIP1 / Fold change vs veh, ARFIP1 / RFU, FAM179B / Fold change vs veh, FAM179B / RFU, BCL10 / Fold change vs veh, BCL10 / RFU, UHRF1BP1L / Fold change vs veh, UHRF1BP1L / RFU, BET1 / Fold change vs veh, BET1 / RFU, CNOT2 / Fold change vs veh, CNOT2 / RFU, ZNF268 / Fold change vs veh, ZNF268 / Fold change vs veh, ZNF507 / RFU, DGCR2 / Fold change vs veh, DGCR2 / RFU, WDSUB1 / Fold change vs veh, WDSUB1 / Fold change vs veh, HSP90B1 /// MIR3652 / RFU, ADSS / Fold change vs veh, ADSS / RFU, GK / Fold change vs veh, GK / RFU, ZNF148 / Fold change vs veh, ZNF148 / RFU, TAF9 / Fold change vs veh, TAF9 / RFU, SLC1A5 / Fold change vs veh, SLC1A5 / RFU, SLMO2 / Fold change vs veh, SLMO2 / RFU, ABCC4 / Fold change vs veh, ABCC4 / RFU, LOC101060439 /// RAP1B / Fold change vs veh, LOC101060439 /// RAP1B / RFU, RFX7 / Fold change vs veh, RFX7 / RFU, GTPBP10 / Fold change vs veh, GTPBP10 / RFU, CNEP1R1 / Fold change vs veh, CNEP1R1 / RFU, BIVM-ERCC5 /// ERCC5 / Fold change vs veh, BIVM-ERCC5 /// ERCC5 / RFU, ILF3 / Fold change vs veh, ILF3 / RFU 11762660_at / Fold change /veh 11762660_at / RFU VCAN (11757783_s_at) / Fold change /veh VCAN (11757783_s_at) / RFU DDX43 (11728927_at) / Fold change /veh DDX43 (11728927_at) / RFU KRT8 (11758188_x_at) / Fold change /veh KRT8 (11758188_x_at) / RFU NKD1 (11759106_at) / Fold change /veh NKD1 (11759106_at) / RFU SRD5A1 (11742802_a_at) / Fold change /veh SRD5A1 (11742802_a_at) / RFU TPSAB1 /// TPSB2 (11721975_s_at) / Fold change /veh TPSAB1 /// TPSB2 (11721975_s_at) / RFU GSTM3 (11746129_a_at) / Fold change /veh GSTM3 (11746129_a_at) / RFU IL23R (11737362_x_at) / Fold change /veh IL23R (11737362_x_at) / RFU TMEM51 (11727254_a_at) / Fold change /veh TMEM51 (11727254_a_at) / RFU PIWIL2 (11732686_x_at) / Fold change /veh PIWIL2 (11732686_x_at) / RFU ORM1 (11744905_x_at) / Fold change /veh ORM1 (11744905_x_at) / RFU CCDC152 (11743942_at) / Fold change /veh CCDC152 (11743942_at) / RFU ECM1 (11717891_a_at) / Fold change /veh ECM1 (11717891_a_at) / RFU IL23R (11748794_a_at) / Fold change /veh IL23R (11748794_a_at) / RFU TNFAIP8L3 (11732012_x_at) / Fold change /veh TNFAIP8L3 (11732012_x_at) / RFU MBOAT4 (11741988_at) / Fold change /veh MBOAT4 (11741988_at) / RFU 11764193_at / Fold change /veh 11764193_at / RFU TMEM53 (11763286_at) / Fold change /veh TMEM53 (11763286_at) / RFU MAGEB2 (11727129_at) / Fold change /veh MAGEB2 (11727129_at) / RFU TMEM200A (11744735_a_at) / Fold change /veh TMEM200A (11744735_a_at) / RFU CCDC152 (11751479_a_at) / Fold change /veh CCDC152 (11751479_a_at) / RFU FAM211A (11726209_a_at) / Fold change /veh FAM211A (11726209_a_at) / RFU RGS16 (11746705_a_at) / Fold change /veh RGS16 (11746705_a_at) / RFU VCAN (11755009_s_at) / Fold change /veh VCAN (11755009_s_at) / RFU RHOB (11743442_s_at) / Fold change /veh RHOB (11743442_s_at) / RFU RGS16 (11720943_a_at) / Fold change /veh RGS16 (11720943_a_at) / RFU RGS16 (11720944_at) / Fold change /veh RGS16 (11720944_at) / RFU, VPS4B / Fold change vs veh, VPS4B / RFU, CREB1 / Fold change vs veh, CREB1 / RFU, DNAJC13 / Fold change vs veh, DNAJC13 / RFU, GNAQ / Fold change vs veh, GNAQ / RFU, CDK5R1 / Fold change vs veh, CDK5R1 / RFU, ZRANB3 / Fold change vs veh, ZRANB3 / RFU, CUL4A / Fold change vs veh, CUL4A / RFU, CCNY / Fold change vs veh, CCNY / RFU, UFL1 / Fold change vs veh, UFL1 / RFU, COG3 / Fold change vs veh, COG3 / RFU, DIAPH2 / Fold change vs veh, DIAPH2 / RFU, SKA2 / Fold change vs veh, SKA2 / RFU, AFF3 / Fold change vs veh, AFF3 / RFU, LMF1 / Fold change vs veh, LMF1 / RFU, IPO11 / Fold change vs veh, IPO11 / RFU, DFFB / Fold change vs veh, DFFB / RFU, FOXP1 / Fold change vs veh, FOXP1 / RFU, CARD8 / Fold change vs veh, CARD8 / RFU, STRN3 / Fold change vs veh, STRN3 / RFU, ADK / Fold change vs veh, ADK / RFU, RASSF2 / Fold change vs veh, RASSF2 / RFU, WIPF1 / Fold change vs veh, WIPF1 / RFU, LARP1B / Fold change vs veh, LARP1B / RFU, RASA1 / Fold change vs veh, RASA1 / RFU, RB1 / Fold change vs veh, RB1 / RFU, PPFIA1 / Fold change vs veh, PPFIA1 / RFU, MAT2A / Fold change vs veh, MAT2A / RFU, CCT5 / Fold change vs veh, CCT5 / RFU, WDR92 / Fold change vs veh, WDR92 / RFU, CUX1 / Fold change vs veh, CUX1 / RFU, TTC7A / Fold change vs veh, TTC7A / RFU, TMEM135 / Fold change vs veh, TMEM135 / RFU, DEPTOR / Fold change vs veh, DEPTOR / RFU, CPM / Fold change vs veh, CPM / RFU, DNAJB6 / Fold change vs veh, DNAJB6 / RFU, CACNA2D3 / Fold change vs veh, CACNA2D3 / RFU, DTX4 / Fold change vs veh, DTX4 / RFU, TFCP2 / Fold change vs veh, TFCP2 / RFU, GMCL1 /// GMCL1P1 / Fold change vs veh, GMCL1 /// GMCL1P1 / RFU, AEBP2 / Fold change vs veh, AEBP2 / RFU, SNHG1 /// SNORD22 /// SNORD25 /// SNORD26 /// SNORD27 /// SNORD28 /// SNORD29 /// SNORD31 / Fold change vs veh, SNHG1 /// SNORD22 /// SNORD25 /// SNORD26 /// SNORD27 /// SNORD28 /// SNORD29 /// SNORD31 / Fold change (Aza/veh), C12orf56 (ProbeSet 11735607_a_at) / Fold change (ACY-1035/veh), C12orf56 (ProbeSet 11735607_a_at) / Fold change (Aza/veh), FGFR1OP (ProbeSet 11751329_s_at) / Fold change (ACY-1035/veh), FGFR1OP (ProbeSet 11751329_s_at) / Fold change (Aza/veh), VPS36 (ProbeSet 11739960_a_at) / Fold change (ACY-1035/veh), VPS36 (ProbeSet 11739960_a_at) / RFU SYPL1 (11715823_x_at) / Fold change /veh SYPL1 (11715823_x_at) / RFU IGFBP7 (11715501_s_at) / Fold change /veh IGFBP7 (11715501_s_at) / RFU REEP3 (11722064_at) / Fold change /veh REEP3 (11722064_at) / RFU IGLL1 (11728026_x_at) / Fold change /veh IGLL1 (11728026_x_at): dose or concentration left out as unconfirmed
Settings: MV-4-11 cells, 48 hours

Nc1ncn([C@@H]2O[C@H](CO)[C@@H](O)[C@H]2O)c(=O)n1 [azacitidine]
Fold change /veh GIMAP4 (11747438_a_at): 1.07
